Laboratory results as given in patent US10696707B2, “Polyene macrolide derivative” (Shionogi & Co., Ltd., priority 2014, dated 2020).
≈ marks a conversion by molar mass, not a printed value.

These compounds were tested on C. albicans ATCC90028 (assay: Antifungal activity test, MIC by broth microdilution (CLSI M27-A3)). Conditions: C. albicans ATCC90028; broth microdilution, 35° C., 24-48 hours, 100% inhibition.
Format: cell-based
Summary of the method: (§1)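 CLSI broth microdilution in RPMI 1640 with 2% glucose, 0.165 mol/L MOPS, pH 7.0; two-fold DMSO dilutions. MIC = lowest concentration giving 100% inhibition versus growth control.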

Row | MIC [µg/mL] | Structure (SMILES)
1 | 0.5 (≈ 0.489 µM) | C[C@@H]1[C@H](O)[C@@H](C)/C=C/C=C/C=C/C=C/C=C/C=C/C=C/[C@H](O[C@@H]2O[C@H](C)[C@@H](O)[C@H](N)[C@@H]2O)C[C@@H]2O[C@](O)(C[C@@H](O)C[C@@H](O)[C@H](O)CC[C@@H](O)C[C@@H](O)CC(=O)O[C@H]1C)C[C@H](O)[C@H]2NC(=O)N1CCC1C(=O)O (stereo partly drawn) [I-284]

Each compound was assayed on A. flavus ATCC204304 (assay: Antifungal activity test, MIC by broth microdilution (CLSI M38-A2)). Conditions: A. flavus ATCC204304; broth microdilution, 35° C., 24-48 hours, 100% inhibition.
Format: cell-based
Summary of the method: as §1

Row | MIC [µg/mL] | Structure (SMILES)
2 | 0.5 (≈ 0.489 µM) | C[C@@H]1[C@H](O)[C@@H](C)/C=C/C=C/C=C/C=C/C=C/C=C/C=C/[C@H](O[C@@H]2O[C@H](C)[C@@H](O)[C@H](N)[C@@H]2O)C[C@@H]2O[C@](O)(C[C@@H](O)C[C@@H](O)[C@H](O)CC[C@@H](O)C[C@@H](O)CC(=O)O[C@H]1C)C[C@H](O)[C@H]2NC(=O)N1CCC1C(=O)O (stereo partly drawn) [I-284]

Each compound was assayed on A. fumigatus ATCC204305 in the same assay as above. Conditions: A. fumigatus ATCC204305; broth microdilution, 35° C., 24-48 hours, 100% inhibition.
Format: cell-based
Summary of the method: as §1

Row | MIC [µg/mL] | Structure (SMILES)
3 | 1 (≈ 0.978 µM) | C[C@@H]1[C@H](O)[C@@H](C)/C=C/C=C/C=C/C=C/C=C/C=C/C=C/[C@H](O[C@@H]2O[C@H](C)[C@@H](O)[C@H](N)[C@@H]2O)C[C@@H]2O[C@](O)(C[C@@H](O)C[C@@H](O)[C@H](O)CC[C@@H](O)C[C@@H](O)CC(=O)O[C@H]1C)C[C@H](O)[C@H]2NC(=O)N1CCC1C(=O)O (stereo partly drawn) [I-284]

Each compound was assayed on red blood cells (5% RBC suspension) (assay: Test Example 2-1: in vitro hemolytic activity test (upper limit 50, 80, 100 or 200 μmol/L)). Conditions: hemolysis method 50 (upper concentration 50 μmol/L); 5% RBC suspension, 37° C., one hour; read-out: hemolysis IC50.
Format: cell-based
Summary of the method: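 A 5% suspension of washed red cells in Earle's medium was exposed to doubling dilutions of compound from DMSO, with maxima of 50, 80, 100 or 200 μmol/L final, for 1 h at 37 °C, 5% CO2. Supernatant absorbance at 540 nm was normalised to water-lysed cells. IC50 is the concentration giving 50% hemolysis; ">" values exceed the top concentration.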

Row | Structure (SMILES) | IC50 [µM]
4 | C[C@@H]1[C@H](O)[C@@H](C)/C=C/C=C/C=C/C=C/C=C/C=C/C=C/[C@H](O[C@@H]2O[C@H](C)[C@@H](O)[C@H](N)[C@@H]2O)C[C@@H]2O[C@](O)(C[C@@H](O)C[C@@H](O)[C@H](O)CC[C@@H](O)C[C@@H](O)CC(=O)O[C@H]1C)C[C@H](O)[C@H]2NC(=O)N1CCC1C(=O)O (stereo partly drawn) [I-284] | > 50

These compounds were tested on red blood cells (5% RBC suspension) (assay: Test Example 2-2: in vitro hemolytic activity test (upper limit 200 μmol/L)). Conditions: Erythrocyte, 1 h; Test Example 2-2; hemolysis method 200 (upper concentration 200 μmol/L); 5% RBC suspension, 37° C., one hour; read-out: hemolysis IC50.
Format: cell-based
Protocol: Nephrotoxic potentials of the compounds of the present invention whose X is —N(R^F)—CO—X^1 and X^1 is the group represented by formula (III) and T is —N(R^a5)— were investigated by in vitro hemolytic activity test under the condition that the upper limit was 200 μmol/L as the required concentration to 50% of hemolysis (IC50).
Defibrinated sterile blood was centrifuged at 700×g for 3 minutes and, and the supernatant was removed for 100% of red blood cells. After the cleaning with physiological saline, the washed blood cells was suspended in the medium (Earle's balanced salt sodium, bicarbonate, 0.1 g/L L-glutamine without phenol red), and was diluted by 5% (5% RBC suspension).
The washed blood was diluted by 5% in water for injection (solution of complete hemolysis), and was used as the indication of optical density for complete hemolysis.
The compounds of the present invention solution in DMSO (several and doubling dilutions starting from 10 mmol/L), DMSO as the negative control, and Amphotericin B as the positive control were used, and each 5 μL of these was added in to a well of V-form 96 well type microplate. Finally, the maximum concentration of the compounds of the present invention solution in DMSO was 200 μmol/L by adding 245 μL of the medium or 5% RBC suspension into the well.
Two hundred fifty μL of the solution of complete hemolysis was added into another well and the microplate was incubated at 37° C. in 5% of CO2 concentration for an hour.
After the incubation, each 100 μL of supernatants in wells was collected by centrifugation of the microplate at 300×g for 5 minutes and was located on a well of flat-form 96 well type microplate. An absorbance of each supernatant was measured at wavelength of 540 nm.
Percent hemolysis was calculated by using the followed equation. The required concentration to 50% of hemolysis (IC50) was calculated based on the percent hemolysis. […] Hemolysis (%)=(CR−VM)×100÷(VL−VR) Where:
CR: Absorbance of 5% RBC suspension incubated with the compounds of the present invention solution in DMSO
VM: Absorbance of medium incubated with the compounds of the present invention solution in DMSO
VL: Absorbance of solution of complete hemolysis
VR: Absorbance of 5% RBC suspension incubated with DMSO
The “>200” in the table means above IC50 value exceeded the upper concentration 200 μmol/L.

Row | Structure (SMILES) | IC50 [µM]
5 | C[C@@H]1[C@H](O)[C@@H](C)/C=C/C=C/C=C/C=C/C=C/C=C/C=C/[C@H](O[C@@H]2O[C@H](C)[C@@H](O)[C@H](N)[C@@H]2O)C[C@@H]2O[C@](O)(C[C@@H](O)C[C@@H](O)[C@H](O)CC[C@@H](O)C[C@@H](O)CC(=O)O[C@H]1C)C[C@H](O)[C@H]2NC(=O)NNC(=O)[C@H](O)CO [I-223] | > 200
6 | C[C@@H]1[C@H](O)[C@@H](C)/C=C/C=C/C=C/C=C/C=C/C=C/C=C/[C@H](O[C@@H]2O[C@H](C)[C@@H](O)[C@H](N)[C@@H]2O)C[C@@H]2O[C@](O)(C[C@@H](O)C[C@@H](O)[C@H](O)CC[C@@H](O)C[C@@H](O)CC(=O)O[C@H]1C)C[C@H](O)[C@H]2NC(=O)NNCCN(C)C [I-78] | > 200

Same assay, conditions: Test Example 2-2; hemolysis method 200 (upper concentration 200 μmol/L); 5% RBC suspension, 37° C., one hour; read-out: hemolysis IC50

Row | Structure (SMILES) | IC50 [µM]
7 | C[C@@H]1[C@H](O)[C@@H](C)/C=C/C=C/C=C/C=C/C=C/C=C/C=C/[C@H](O[C@@H]2O[C@H](C)[C@@H](O)[C@H](N)[C@@H]2O)C[C@@H]2O[C@](O)(C[C@@H](O)C[C@@H](O)[C@H](O)CC[C@@H](O)C[C@@H](O)CC(=O)O[C@H]1C)C[C@H](O)[C@H]2NC(=O)NNc1ccc(C(F)(F)F)cn1 [I-125] | > 200
8 | C[C@@H]1[C@H](O)[C@@H](C)/C=C/C=C/C=C/C=C/C=C/C=C/C=C/[C@H](O[C@@H]2O[C@H](C)[C@@H](O)[C@H](N)[C@@H]2O)C[C@@H]2O[C@](O)(C[C@@H](O)C[C@@H](O)[C@H](O)CC[C@@H](O)C[C@@H](O)CC(=O)O[C@H]1C)C[C@H](O)[C@H]2NC(=O)NNC(=S)NCCCN1CCOCC1 [I-217] | > 200
9 | CNC(=S)NNC(=O)N[C@H]1[C@@H]2C[C@@H](O[C@@H]3O[C@H](C)[C@@H](O)[C@H](N)[C@@H]3O)/C=C/C=C/C=C/C=C/C=C/C=C/C=C/[C@H](C)[C@@H](O)[C@@H](C)[C@H](C)OC(=O)C[C@H](O)C[C@H](O)CC[C@@H](O)[C@H](O)C[C@H](O)C[C@](O)(C[C@@H]1O)O2 [I-215] | > 200
10 | C[C@@H]1[C@H](O)[C@@H](C)/C=C/C=C/C=C/C=C/C=C/C=C/C=C/[C@H](O[C@@H]2O[C@H](C)[C@@H](O)[C@H](N)[C@@H]2O)C[C@@H]2O[C@](O)(C[C@@H](O)C[C@@H](O)[C@H](O)CC[C@@H](O)C[C@@H](O)CC(=O)O[C@H]1C)C[C@H](O)[C@H]2NC(=O)NNC(=O)[C@H](O)C(C)(C)CO [I-245] | > 200
11 | C[C@@H]1[C@H](O)[C@@H](C)/C=C/C=C/C=C/C=C/C=C/C=C/C=C/[C@H](O[C@@H]2O[C@H](C)[C@@H](O)[C@H](N)[C@@H]2O)C[C@@H]2O[C@](O)(C[C@@H](O)C[C@@H](O)[C@H](O)CC[C@@H](O)C[C@@H](O)CC(=O)O[C@H]1C)C[C@H](O)[C@H]2NC(=O)NNC(=O)Nc1cccnn1 [I-224] | > 200
12 | C[C@@H]1[C@H](O)[C@@H](C)/C=C/C=C/C=C/C=C/C=C/C=C/C=C/[C@H](O[C@@H]2O[C@H](C)[C@@H](O)[C@H](N)[C@@H]2O)C[C@@H]2O[C@](O)(C[C@@H](O)C[C@@H](O)[C@H](O)CC[C@@H](O)C[C@@H](O)CC(=O)O[C@H]1C)C[C@H](O)[C@H]2NC(=O)NNc1ncccc1C(F)(F)F [I-124] | > 200
